Read-outs that look alike come from different tables or passages of the source.
Tests used:
Assay type in all cases: cell-based
hGIPR = target: T1, hGIPR (Homo sapiens, UniProt P48546); test: Functional cAMP formation (HTRF) in HEK-293 clonal cells expressing hGIPR, 0.1% bovine casein, without or with 1.0% human serum albumin; conditions: for EC50: geometric mean
T1 construct: expressed in transfected cells
T1 sequence (P48546 22-466): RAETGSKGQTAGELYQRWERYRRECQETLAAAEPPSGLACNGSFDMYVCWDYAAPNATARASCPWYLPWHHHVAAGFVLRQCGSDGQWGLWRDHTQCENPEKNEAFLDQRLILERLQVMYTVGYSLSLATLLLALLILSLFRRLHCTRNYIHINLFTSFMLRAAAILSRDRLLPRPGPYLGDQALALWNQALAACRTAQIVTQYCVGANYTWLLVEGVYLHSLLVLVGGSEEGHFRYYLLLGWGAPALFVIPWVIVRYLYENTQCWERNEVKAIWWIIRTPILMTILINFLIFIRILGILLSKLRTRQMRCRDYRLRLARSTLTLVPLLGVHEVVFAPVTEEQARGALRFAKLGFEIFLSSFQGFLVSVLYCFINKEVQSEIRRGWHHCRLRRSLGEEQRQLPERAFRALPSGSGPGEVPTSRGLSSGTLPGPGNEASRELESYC
In short: (§1)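 Readings of the HTRF 665/620 nm ratio, which falls as cAMP rises, were converted to nM cAMP using a standard curve after 30 min peptide exposure at 37° C.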

hGLP-1R = hGLP-1R (Homo sapiens, UniProt P43220); test: Functional cAMP formation (HTRF) in HEK-293 clonal cells expressing hGLP-1R, 0.1% bovine casein, without or with 1.0% human serum albumin; design: expressed in transfected cells; conditions: for EC50: geometric mean
In short: as §1

hGCGR = target: T2, hGCGR (Homo sapiens, UniProt P47871); test: Functional cAMP formation (HTRF) in HEK-293 clonal cells expressing hGCGR, 0.1% bovine casein, without or with 1.0% human serum albumin; conditions: geometric mean
T2 construct: expressed in transfected cells
In short: as §1

T2 sequence (P47871 26-477): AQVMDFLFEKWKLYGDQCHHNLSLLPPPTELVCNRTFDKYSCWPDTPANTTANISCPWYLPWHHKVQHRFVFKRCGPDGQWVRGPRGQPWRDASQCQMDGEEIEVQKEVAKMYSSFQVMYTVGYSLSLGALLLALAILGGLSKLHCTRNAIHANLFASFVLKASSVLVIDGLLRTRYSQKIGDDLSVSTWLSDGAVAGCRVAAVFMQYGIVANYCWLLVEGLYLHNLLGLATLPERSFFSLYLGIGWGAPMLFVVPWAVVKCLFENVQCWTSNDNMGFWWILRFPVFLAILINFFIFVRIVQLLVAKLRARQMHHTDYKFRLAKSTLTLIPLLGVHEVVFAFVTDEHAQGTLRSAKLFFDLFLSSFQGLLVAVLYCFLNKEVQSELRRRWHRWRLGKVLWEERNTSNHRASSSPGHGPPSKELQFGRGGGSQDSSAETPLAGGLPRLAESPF
Sequence of hGLP-1R (P43220 24-463): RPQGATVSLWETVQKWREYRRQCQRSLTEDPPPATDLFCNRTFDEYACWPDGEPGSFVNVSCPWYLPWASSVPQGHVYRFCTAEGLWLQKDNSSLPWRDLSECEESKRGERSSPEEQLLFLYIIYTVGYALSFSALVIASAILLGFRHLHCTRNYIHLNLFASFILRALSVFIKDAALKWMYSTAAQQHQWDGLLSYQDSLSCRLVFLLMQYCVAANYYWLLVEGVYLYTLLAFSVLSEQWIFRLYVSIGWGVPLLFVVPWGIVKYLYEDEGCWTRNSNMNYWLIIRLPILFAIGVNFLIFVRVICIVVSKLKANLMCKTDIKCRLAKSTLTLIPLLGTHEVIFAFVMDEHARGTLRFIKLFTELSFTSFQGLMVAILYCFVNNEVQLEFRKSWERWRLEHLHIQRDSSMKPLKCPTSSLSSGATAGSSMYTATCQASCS

| SMILES | EC50 (hGIPR; 0.1% bovine casein and 1.0% human serum albumin, 37° C., read-out: hGIPR EC50, nM (SEM, n)) [nM] | Emax (hGIPR; HEK293, 0.1% bovine casein and 1.0% human serum albumin, 37° C., percent of maximal response to GIP(1-42)NH2, read-out: hGIPR Emax, % ± SEM) [%] | Emax (hGIPR; HEK293, percent of maximal response to GIP(1-42)NH2, 37° C., 0.1% bovine casein, arithmetic mean, read-out: hGIPR Emax, % ± SEM) [%] | EC50 (hGIPR; cAMP, incubated at 37° C., 0.1% bovine casein (no human serum albumin), read-out: hGIPR EC50, nM (SEM, n)) [nM] | EC50 (hGLP-1R; 0.1% bovine casein and 1.0% human serum albumin, 37° C., read-out: hGLP-1R EC50, nM (SEM, n)) [nM] | Emax (hGLP-1R; HEK293, 0.1% bovine casein and 1.0% human serum albumin, 37° C., percent of maximal response to GLP-1(7-36)NH2, read-out: hGLP-1R Emax, % ± SEM) [%] | EC50 (hGLP-1R; cAMP, incubated at 37° C., 0.1% bovine casein (no human serum albumin), read-out: hGLP-1R EC50, nM (SEM, n)) [nM] | EC50 (hGCGR; 0.1% bovine casein and 1.0% human serum albumin, 37° C., read-out: hGCGR EC50, nM (SEM, n)) [nM] | EC50 (hGCGR; cAMP, incubated at 37° C., 0.1% bovine casein (no human serum albumin), read-out: hGCGR EC50, nM (SEM, n)) [nM] | Emax (hGIPR; HEK293, read-out: hGIPR Emax, % ± SEM, percent of maximal response to GIP(1-42)NH2, 37° C., 0.1% bovine casein, arithmetic mean) [%] | EC50 (hGIPR; hGIPR EC50, nM (SEM, n), cAMP, incubated at 37° C., 0.1% bovine casein (no human serum albumin)) [nM] | EC50 (hGLP-1R; hGLP-1R EC50, nM (SEM, n), cAMP, incubated at 37° C., 0.1% bovine casein (no human serum albumin)) [nM] | EC50 (hGCGR; hGCGR EC50, nM (SEM, n), cAMP, incubated at 37° C., 0.1% bovine casein (no human serum albumin)) [nM] |
| --- | --- | --- | --- | --- | --- | --- | --- | --- | --- | --- | --- | --- | --- |
| CC[C@H](C)[C@H](NC(=O)[C@H](CC(C)C)NC(=O)[C@](C)(Cc1ccc(O)cc1)NC(=O)[C@@H](CCC(=O)O)NC(=O)[C@@H](NC(=O)[C@H](Cc1ccccc1)NC(=O)[C@H](CCCCNC(=O)COCCOCCNC(=O)COCCOCCNC(=O)CC[C@H](NC(=O)CCCc1ccc(C(C)(C)C)cc1)C(=O)O)NC(=O)C(C)(C)NC(=O)[C@H](CCC(N)=O)NC(=O)[C@H](C)NC(=O)[C@H](CCCCNC(=O)COCCOCCNC(=O)COCCOCCNC(=O)CC[C@H](NC(=O)CCCc1ccc(C(C)(C)C)cc1)C(=O)O)NC(=O)[C@H](CCCN)NC(=O)[C@H](CC(=O)O)NC(=O)[C@H](CC(C)C)NC(=O)[C@](C)(CC(C)C)NC(=O)[C@@H](NC(=O)[C@H](CO)NC(=O)[C@H](Cc1ccncc1)NC(=O)[C@H](CC(=O)O)NC(=O)[C@H](CO)NC(=O)[C@@H](NC(=O)[C@](C)(Cc1ccccc1F)NC(=O)[C@@H](NC(=O)CNC(=O)[C@H](CCC(=O)O)NC(=O)C(C)(C)NC(=O)[C@@H](N)Cc1ccc(O)cc1)[C@@H](C)O)[C@@H](C)O)[C@@H](C)CC)[C@@H](C)CC)C(=O)N[C@@H](CCC(=O)O)C(=O)NCC(=O)NCC(=O)N1CCC[C@H]1C(=O)N[C@@H](CO)C(=O)N[C@@H](CO)C(=O)NCC(=O)N[C@@H](C)C(=O)N1CCC[C@H]1C(=O)N1CCC[C@H]1C(=O)N1CCC[C@H]1C(=O)N[C@@H](CO)C(N)=O [Example 131] | 0.0581 | 90.4 ± 1.62 | 96.4 ± 1.95 | 0.0156 | 1.04 | 112 ± 1.76 | 0.19 | > 9950 | > 9950 |  |  |  |  |
| CC[C@H](C)[C@H](NC(=O)[C@H](CC(C)C)NC(=O)[C@](C)(Cc1ccc(O)cc1)NC(=O)[C@H](CCCCNC(=O)COCCOCCNC(=O)COCCOCCNC(=O)CC[C@H](NC(=O)CCCc1ccc(C(C)(C)C)cc1)C(=O)O)NC(=O)[C@@H](NC(=O)[C@H](Cc1ccccc1)NC(=O)[C@H](CCC(=O)O)NC(=O)C(C)(C)NC(=O)[C@H](CCC(N)=O)NC(=O)[C@H](C)NC(=O)[C@H](CCCCNC(=O)COCCOCCNC(=O)COCCOCCNC(=O)CC[C@H](NC(=O)CCCc1ccc(C(C)(C)C)cc1)C(=O)O)NC(=O)[C@H](CCCN)NC(=O)[C@H](CC(=O)O)NC(=O)[C@H](CC(C)C)NC(=O)[C@](C)(CC(C)C)NC(=O)[C@@H](NC(=O)[C@H](CO)NC(=O)[C@H](Cc1ccncc1)NC(=O)[C@H](CC(=O)O)NC(=O)[C@H](CO)NC(=O)[C@@H](NC(=O)[C@](C)(Cc1ccccc1F)NC(=O)[C@@H](NC(=O)CNC(=O)[C@H](CCC(=O)O)NC(=O)C(C)(C)NC(=O)[C@@H](N)Cc1ccc(O)cc1)[C@@H](C)O)[C@@H](C)O)[C@@H](C)CC)[C@@H](C)CC)C(=O)N[C@@H](CCC(=O)O)C(=O)NCC(=O)NCC(=O)N1CCC[C@H]1C(=O)N[C@@H](CO)C(=O)N[C@@H](CO)C(=O)NCC(=O)N[C@@H](C)C(=O)N1CCC[C@H]1C(=O)N1CCC[C@H]1C(=O)N1CCC[C@H]1C(=O)N[C@@H](CO)C(N)=O [Example 132] |  |  |  |  |  |  |  |  |  | 98.3 ± 1.68 | 0.0208 | 0.182 | > 9950 |

From patent US20230265151A1, “GIP/GLP1 CO-AGONIST COMPOUNDS” (priority 2020, published 2023)
